# Reference: ChEMBL document CHEMBL2094269, “WEHI/Eskitis Trypanosoma b. brucei screening data”
# How the values were obtained:
# [1] = DNDI: Cytotoxicity against human MRC-5 lung fibroblast cells.; details: IC50
# [2] = tested on: Trypanosoma brucei brucei; assay: microbe, parasite or virus in culture; assay type: functional, organism-based, STIB 795
# Description: DNDI: Inhibition of Human African Trypanosomiasis (HAT), STIB 795, in vitro
SMILES,IC50 [1] [µM],"IC50 ([2]; Trypanosoma brucei, STIB 795) [µM]",IC50 [2] [µM]
COC(=O)c1nc(-c2ccccc2)nc(-c2ccccc2)c1C(=O)OC,> 4.17,4.78,–
N/C(Cc1cccc2ccccc12)=N\OC(=O)N1CCOCC1,> 20.8,0.604,–
CCOC(=O)c1ccc(Nc2nnc(C(C)(C)C)c(O)n2)cc1,> 41.7,10.2,–
Cc1ccccc1/N=N/C(=N\Nc1ccccc1)c1ccccc1,> 41.7,1.64,–
Cc1ccc(Nc2cc(C)nc3c(C)c(C)cc(N)c23)c(C)c1,> 41.7,5.12,–
Cc1nc2sccn2c1C(=O)N/N=C/c1c(O)ccc2ccccc12,> 4.17,1.53,–
CCOc1cc2c(cc1OCC)C(c1ccc(Br)cc1)NCC2 (stereo not drawn),> 41.7,5.55,–
O=S1(=O)CCC(N2COc3c(cc(Cl)c4cccnc34)C2)C1 (stereo not drawn),> 4.17,5.09,–
CCn1c(SCC(=O)N/N=C(\C)c2ccc(O)c(OC)c2)nc2ccccc21,> 41.7,5.06,–
Cc1cc(C)c2c(N)c3cccc(C)c3nc2n1,0.9,0.35,–
CC1(C)CC(=O)c2sc(NC(=O)c3sc4ccccc4c3Cl)nc2C1,> 41.7,0.442,–
O=C(N/N=C/c1cc(Cl)ccc1O)c1ccc(F)cc1,> 20.8,≤ 10.4,–
Cc1cc(C(=O)N/N=C/c2c(O)ccc3ccccc23)c2ccccc2n1,> 4.17,5.24,–
Fc1ccc(C(=CCCn2ccnc2)c2ccc(F)cc2)cc1,7.02,0.327,–
CN(C)c1ccc2nc3ccc(=[N+](C)C)cc-3sc2c1 [METHYLENE BLUE CATION],> 2.08,< 0.02,–
COC(=O)C1=C(OC)C(=O)OC12C=CC(=O)C=C2,1.06,0.524,–
O=C1/C(=C\c2ccccc2F)COC/C1=C\c1ccccc1F,> 41.7,1.6,–
N=C(Nc1nc(-c2ccccn2)cc2ccccc12)c1cccc(Cl)c1,> 41.7,6.02,–
CN(C)CCCn1c(N)c(-c2nc3ccccc3[nH]2)c2nc(C#N)c(C#N)nc21,> 41.7,4.08,–
CN1C/C(=C/c2ccc(C#N)cc2)C(=O)/C(=C/c2ccc(C#N)cc2)C1,> 20.8,0.366,–
O=C(NCCc1csc(-c2cccc(F)c2)n1)c1cccs1,> 41.7,≤ 0.043,–
CC(=O)C(C(C)=O)C1=CC(=O)C(=O)c2ccccc21,> 20.8,7.06,–
O=c1cc(OC2=CS(=O)(=O)c3ccccc32)c2ccccc2o1,5.99,3.59,–
CN1c2ccccc2N(C)C1c1ccc(O)cc1,> 41.7,3.47,–
Oc1c(C(c2ccc(C(F)(F)F)cc2)N2CCOCC2)ccc2cccnc12 (stereo not drawn),> 20.8,5.43,–
CN(C)CCCC1(O)c2ccccc2C2(CC2)c2ccccc21,> 10.4,0.436,–

SMILES,IC50 [1] [µM],"IC50 ([2]; Trypanosoma brucei, STIB 795) [µM]",IC50 [2] [µM]
Nc1ccsc1/C=C/c1cccs1,> 41.7,5.05,–
C=CCNc1nc(N)c(/C(N)=N\C#N)s1,> 41.7,3.21,–
CCc1nnc(NC(=O)c2cc3ccc4ccc(C)nc4c3[nH]2)s1,> 41.7,0.494,–
Cn1c(Cl)cnc1C1CC(=O)c2cc(Cl)ccc2O1 (stereo not drawn),> 41.7,0.81,–
NS(=O)(=O)c1ccc(/N=N/c2ccc(O)c3ncccc23)cc1,> 20.8,4.78,–
CC1(C)OC(C)(C)/C(=C/c2ccc3cccnc3c2)C1=O,> 20.8,5.21,–
Cc1ncc(CO)c(/C=N/NC(=O)c2ccc(C(C)(C)C)cc2)c1O,6.25,4.26,–
C/C(=N\NC(=O)Cc1ccc(F)cc1)c1ccccn1,> 4.17,5.17,–
O=C(O)c1n[nH]c2c1CCCCCC2,> 4.17,≤ 2.64,–
NCC12CC3CC(C1)CC(c1ccc(Cl)c(Cl)c1)(C3)C2,> 41.7,2.54,–
Cc1ccccc1OCCn1c(=N)n(Cc2ccccc2F)c2ccccc21,> 20.8,4.95,–
Cc1nnc(N/N=C/c2cc(Br)ccc2O)nc1O,3.41,3,–
Cn1cnn(C2CC(=O)C3OCC2O3)c1=S (stereo not drawn),> 20.8,3.7,2.07
CCc1ccc2nc3nc(C)cc(C)c3c(N)c2c1,> 20.8,4.86,–
CC(C)CC[n+]1ccccc1C=Cc1ccc(N(C)C)cc1,> 10.4,0.734,–
O=C(NNc1cccccc1=O)c1ccccc1,> 10.4,5.18,–
N=c1n(CCc2ccccc2)c2ccccc2n1Cc1ccccc1F,> 20.8,5.49,–
Clc1ccc(CCNCc2c[nH]c3ccccc23)c(Cl)c1,> 20.8,5.33,–
Cc1ccc2[nH]c3c(c2c1)CCC/C3=N\N=C(N)N,> 20.8,8.57,–
CC(C)(C)C/C(=N\NC(=N)N)c1ccccc1,> 20.8,5.39,–
COc1ccc(OCC(=O)N/N=C(\C)c2ccccn2)cc1,> 20.8,5.26,–
CCn1ccnc1-c1cccc(-c2ccccn2)n1,> 1.04,0.425,–
CCN(CC)CCn1nc2c3c(cccc3c1=O)-c1ccccc1-2,1.46,1.58,–
CN1/C(=C/C=C/c2oc3ccccc3[n+]2C)Oc2ccccc21,> 2.08,0.253,–
CCOC(=O)C1CCCN(Cc2cc(Cl)c3cccnc3c2O)C1 (stereo not drawn),> 4.17,5.09,–
Nc1ccc2c(c1)C(=O)C(=O)c1cc(N)ccc1-2,> 20.8,0.975,–

SMILES,IC50 [1] [µM],"IC50 ([2]; Trypanosoma brucei, STIB 795) [µM]",IC50 [2] [µM]
O/N=C1C=C/C(=N\O)c2ncccc2/1,4.89,2.32,–
O=C(N/N=C(\c1ccccc1)c1ccccn1)c1ccccc1Cl,> 4.17,1.76,–
CCn1nc(/C=C/c2ccccc2)[n+]([O-])c2c(=O)n(C)c(=O)nc1-2,> 20.8,3.67,–
CCN(CC)c1ccc(C2N(C)c3ccccc3N2C)cc1,> 41.7,2.49,–
C[N+](CC#CC1CC1)(C1CCCCC1)C1CCCCC1,> 41.7,8.85,–
CCOc1cc2c(cc1OCC)C(/C(Cl)=C/c1ccccc1)NCC2 (stereo not drawn),> 41.7,5,–
CC(C)(C)c1ccc(OCCCCCCN2CCNCC2)cc1,> 20.8,0.734,–
N=C(NOC(=O)N1CCOCC1)c1ccc(Br)cc1,> 20.8,0.748,–
CN(C)CCn1c(=N)n(CC(O)c2ccc(Cl)c(Cl)c2)c2ccccc21 (stereo not drawn),> 4.17,1.07,–
Oc1c(Cl)cc(CN2CCCC2)c2cccnc12,> 4.17,4.32,–
Clc1cc2c(c3ncccc13)OCN(CCC1=CCCCC1)C2,> 20.8,1.05,–
CCN1/C(=C/C(=C/c2sc3ccccc3[n+]2CC)OC)Sc2ccccc21,2.25,0.524,–
COc1ccc(C(=O)O/N=C(\N)c2ccc(OC)c(OC)c2)c(OC)c1,> 41.7,1.33,–
NC(N)=N/N=C1/C(=O)Nc2ccc(F)cc21,> 41.7,1.42,–
Cc1ccc(C23CC4CC(CC(CN)(C4)C2)C3)cc1C,> 20.8,0.91,–
COCC(=O)N/N=C/c1ccc(SCC(=O)Nc2ccc3ccccc3c2)o1,> 41.7,6.86,–
CCn1c(=N)n(CCCOc2ccc(F)cc2)c2ccccc21,> 20.8,5.46,–
O=C1CC(n2nnn(-c3ccc(OC(F)(F)F)cc3)c2=S)C2COC1O2 (stereo not drawn),> 41.7,4.99,–
O=C(NC(c1ccco1)c1cc(Cl)c2cccnc2c1O)c1cccnc1 (stereo not drawn),> 20.8,0.053,–
Cc1cc(C)c2nc(C)cc(Nc3cccc(O)c3)c2c1,> 20.8,4.93,–
COc1ccc2c(-c3ccccc3)cc(NCCCN(C)C)nc2c1,> 20.8,3.67,–
CCOC(=O)C/C(C)=N/Nc1ccc(-n2nc(C)c(C)c2C)nn1,> 10.4,2.16,–
O=C(N/N=C/c1c(O)ccc2ccccc12)c1cc(Br)ccc1O,> 4.17,3.77,–
O=C(N/N=C/c1ccc(Cl)cc1Cl)c1ccc(O)c(O)c1,> 20.8,1.54,–
